According to patent publication US4231936A, “Mitomycin C derivatives” (priority 1977, dated 1980):

How the values were obtained:
[1] = Number of leucocytes in peripheral blood of Sarcoma-180 bearing mice (Example IV); type: in vivo, dd-strain mice; parameters: key: D*: All mice in the group died
Experimental: (§1) The following treatment was performed to make these compounds water-soluble for use in the experiments. A test compound was dissolved in ethanol (about 1000 times by weight) HCO-60, a commercially available surfactant was added in amounts of about 3 times by weight. The mixture was well stirred to dissolve the HCO-60. Ethanol was removed from the solution under reduced pressure by using a rotary evaporator. After this, a test solution was prepared by adding a suitable amount of a physiological saline solution with agitation.
(§2) Sarcoma 180 cells were inoculated intraperitoneally into dd-strain mice. After 7 days following tumor implantation, ascites tumor cells were obtained from the mice. The cells were washed and a tumor cell suspension containing 5×10^7 cells per ml was prepared with physiological saline solution. 0.1 ml of the thus-prepared suspension containing 5×10^6 cells was inoculated into the left inguinal region of each of the test mice (dd-strain; weight 19±1 g; divided into groups, each group consisting of 5 mice). After 24 hours following the inoculation, the test compounds were administered to the mice individually and intraperitoneally. After 4 days following the inoculation, the peripherical blood of the treated mice was obtained by the puncture of the orbital vein. The number of the leucocytes in the peripheral blood was measured by using Toa Microcell Counter CC-108 (a commercial product of Toa Medical Electronics Co., Ltd., Japan). In order to evaluate the antitumor effects, the tumor was removed 7 days after the inoculation and weighed. Its weight was compared with the average weight of the tumors of the control group (untreated) to give the weight ratios (T/C) shown in Table 5.

[2] = tested on: P-388 cells; test: Antitumor activity, P-388 leukemia intraperitoneally inoculated, compound i.p. (Example II); type: in vivo, CDF1 mice
Experimental: as §1
Seven-day-old leukemia cells obtained from the ascites of DBA/2 mice inoculated intraperitoneally with 10^6 P-388 cells were used. A cell suspension containing 5×10^6 cells per ml was prepared by using a sterilized physiological saline solution. The test mice (CDF1 mice, 20-25 g) were inoculated with 0.2 ml of the cell suspension containing 1×10^6 cells intraperitoneally. After 24 hours, the mice were divided into groups (each group consisting of 5 mice) and the test solutions were administered intraperitoneally once only. […] In order to evaluate the effects of the test samples, the average survival days were calculated 30 and 60 days after tumor implantation and compared with those of the control group (untreated group). Antitumor activities of the test compounds are indicated by ILS % (increase in life span%) on the basis of the control group.

[3] = tested on: Sarcoma 180 cells; test: Effect on Sarcoma-180, tumor weight ratio (Example IV); type: in vivo, dd-strain mice; parameters: key: D*: All mice in the group died
Experimental: as §1, §2

[4] = Acute toxicity determination, intraperitoneal; parameters: species or system Mice (dd-strain); details: mouse, in vivo, ip; dd mice, single i.p., 14 days, Behrens-Karber
Experimental: as §1
Mice [dd-strain; weight 20±1 g; each group consisted of 5 mice] were used for this experiment. An individual test solution was administered to each mouse by intraperitoneal injection. The test solutions (each 0.5 ml) were prepared by stepwise dilution.

[5] = tested on: P-388 cells; test: Antitumor effect, P-388 cells intravenously inoculated, compound i.v. (Example III); type: in vivo, Mice; details: 30 days
Experimental: as §1
Mice were inoculated intravenously with P-388 cells (10^6 /0.2 ml) in a similar manner to that described above in Example II. […] Untreated mice and mice administered with Tween 80 were used for control purpose.

[6] = tested on: Klebsiella pneumoniae ATCC 10031; test: Minimum inhibitory concentration (Table I); type: cell-based
Excerpt: (§3) Comparative data similarly obtained by using mitomycin A, mitomycin C and 7-N-phenyl mitomycin C are also shown in this table

[7] = tested on: Staphylococcus aureus ATCC 6538P; test: Minimum inhibitory concentration (Table I); type: cell-based
Excerpt: as §3

[8] = tested on: Shigella sonnei ATCC 9290; test: Minimum inhibitory concentration (Table I); type: cell-based
Excerpt: as §3

[9] = tested on: Bacillus subtilis ATCC 10707; test: Minimum inhibitory concentration (Table I); type: cell-based
Excerpt: as §3

[10] = Solubility in water; type: physicochemical
[11] = 5 mg/kg i.p., 4 days after inoculation
[12] = 10 mg/kg i.p., 4 days after inoculation
[13] = 20 mg/kg i.p., 4 days after inoculation
[14] = 40 mg/kg i.p., 4 days after inoculation
[15] = 5 mg/kg i.p. once, determined after 30 days
[16] = 5 mg/kg i.p. once, determined after 60 days
[17] = 10 mg/kg i.p. once, determined after 30 days
[18] = 10 mg/kg i.p. once, determined after 60 days
[19] = 20 mg/kg i.p. once, determined after 30 days
[20] = 20 mg/kg i.p. once, determined after 60 days
[21] = 30 mg/kg i.p. once, determined after 30 days
[22] = 30 mg/kg i.p. once, determined after 60 days
[23] = 5 mg/kg i.p., tumor weighed 7 days after inoculation
[24] = 10 mg/kg i.p., tumor weighed 7 days after inoculation
[25] = 20 mg/kg i.p., tumor weighed 7 days after inoculation
[26] = 40 mg/kg i.p., tumor weighed 7 days after inoculation
[27] = 15 mg/kg i.p. once, determined after 30 days
[28] = 15 mg/kg i.p. once, determined after 60 days

## CO[C@@]12[C@H](COC(N)=O)C3=C(C(=O)C(C)=C(Nc4ccc(O)cc4)C3=O)N1C[C@@H]1N[C@@H]12 [Compound IV, 7-N-(p-hydroxyphenyl)-mitomycin C]
[1]; [11]
  Average number of leucocytes: 63.2 ± 10.2 × 10^2 /mm^3
[1]; [12]
  Average number of leucocytes: 64.0 ± 24.6 × 10^2 /mm^3
[1]; [13]
  Average number of leucocytes: 39.0 ± 5.6 × 10^2 /mm^3
[1]; [14]
  Average number of leucocytes: 40.0 ± 15.3 × 10^2 /mm^3
[2]; [15]
  Average survival days: 20.4 ± 5.2 days
  ILS % (increase in life span): 108%
  Number of survivors: 1/5
[2]; [16]
  Average survival days: 20.4 ± 5.2 days
  ILS % (increase in life span): 108%
  Number of survivors: 0/5
[2]; [17]
  Average survival days: 23.0 ± 4.5 days
  ILS % (increase in life span): 135%
  Number of survivors: 1/5
[2]; [18]
  Average survival days: 23.4 ± 5.1 days
  ILS % (increase in life span): 136%
  Number of survivors: 0/5
[2]; [19]
  Average survival days: 28.4 ± 3.2 days
  ILS % (increase in life span): 190%
  Number of survivors: 4/5
[2]; [20]
  Average survival days: 47.6 ± 15.8 days
  ILS % (increase in life span): 386%
  Number of survivors: 3/5
[2]; [21]
  Average survival days: 15.4 ± 0.4 days
  ILS % (increase in life span): 57%
  Number of survivors: 1/5
[2]; [22]
  Average survival days: 21.4 ± 20.7 days
  ILS % (increase in life span): 118%
  Number of survivors: 1/5
[3]; [23]
  T/C (tumor weight ratio): 0.83
[3]; [24]
  T/C (tumor weight ratio): 0.66
[3]; [25]
  T/C (tumor weight ratio): 0.46
[3]; [26]
  T/C (tumor weight ratio): 0.27
[4]
  LD50 at 336 h: 34 mg/kg
[5]; 5 mg/kg i.v. once
  Average survival days: 11.4 ± 1.4 days
  ILS %: 33%
[5]; 10 mg/kg i.v. once
  Average survival days: 14.0 ± 0 days
  ILS %: 63%
[5]; 15 mg/kg i.v. once
  Average survival days: 16.6 ± 1.5 days
  ILS %: 93%
[5]; 20 mg/kg i.v. once
  Average survival days: 17.6 ± 4.1 days
  ILS %: 105%
[5]; 30 mg/kg i.v. once
  Average survival days: 7.6 ± 0.8 days
  ILS %: -12%
[6]
  minimum inhibitory concentration: 0.391
[7]
  minimum inhibitory concentration: 0.196
[8]
  minimum inhibitory concentration: 6.25
[9]
  minimum inhibitory concentration: 0.049
[10]
  solubility in water: low solubility in water

## CO[C@@]12[C@H](COC(N)=O)C3=C(C(=O)C(C)=C(Nc4ccc(N)cc4)C3=O)N1C[C@@H]1N[C@@H]12 [V, 7-N-(p-aminophenyl)-mitomycin C]
[1]; [11]
  Average number of leucocytes: 58.2 ± 17.1 × 10^2 /mm^3
[1]; [12]
  Average number of leucocytes: 34.2 ± 11.2 × 10^2 /mm^3
[1]; [13]
  Average number of leucocytes: 24.0 ± 10.2 × 10^2 /mm^3
[1]; [14]
  Average number of leucocytes: 13.6 ± 4.6 × 10^2 /mm^3
[2]; [15]
  Average survival days: 20.0 ± 3.0 days
  ILS % (increase in life span): 104%
  Number of survivors: 0/5
[2]; [16]
  Average survival days: 20.0 ± 3.0 days
  ILS % (increase in life span): 104%
  Number of survivors: 0/5
[2]; [17]
  Average survival days: 24.6 ± 2.9 days
  ILS % (increase in life span): 151%
  Number of survivors: 1/5
[2]; [18]
  Average survival days: 26.4 ± 6.4 days
  ILS % (increase in life span): 169%
  Number of survivors: 0/5
[2]; [27]
  Average survival days: 21.6 ± 6.4 days
  ILS % (increase in life span): 120%
  Number of survivors: 1/5
[2]; [28]
  Average survival days: 21.8 ± 6.7 days
  ILS % (increase in life span): 122%
  Number of survivors: 0/5
[2]; [19]
  Average survival days: 18.4 ± 6.1 days
  ILS % (increase in life span): 88%
  Number of survivors: 1/5
[2]; [20]
  Average survival days: 24.4 ± 17.9 days
  ILS % (increase in life span): 149%
  Number of survivors: 1/5
[3]; [23]
  T/C (tumor weight ratio): 0.71
[3]; [24]
  T/C (tumor weight ratio): 0.37
[3]; [25]
  T/C (tumor weight ratio): 0.24
[3]; [26]
  T/C (tumor weight ratio): 0.09
[4]
  LD50 at 336 h: 18 mg/kg
[5]; 5 mg/kg i.v. once
  Average survival days: 14.0 ± 0 days
  ILS %: 63%
[5]; 10 mg/kg i.v. once
  Average survival days: 17.8 ± 1.9 days
  ILS %: 107%
[5]; 15 mg/kg i.v. once
  Average survival days: 23.0 ± 1.7 days
  ILS %: 167%
[5]; 20 mg/kg i.v. once
  Average survival days: 15.8 ± 5.4 days
  ILS %: 84%
[5]; 30 mg/kg i.v. once
  Average survival days: 8.4 ± 1.0 days
  ILS %: -2%
[6]
  minimum inhibitory concentration: 0.049
[7]
  minimum inhibitory concentration: < 0.025
[8]
  minimum inhibitory concentration: 3.125
[9]
  minimum inhibitory concentration: < 0.025
[10]
  solubility in water: low solubility in water

## COC1=C(C)C(=O)C2=C(C1=O)[C@@H](COC(N)=O)[C@@]1(OC)[C@H]3N[C@H]3CN21 [Compound I, mitomycin A]
[6]
  minimum inhibitory concentration: < 0.025
[7]
  minimum inhibitory concentration: < 0.025
[8]
  minimum inhibitory concentration: 0.098
[9]
  minimum inhibitory concentration: < 0.025

## CO[C@@]12[C@H](COC(N)=O)C3=C(C(=O)C(C)=C(Nc4ccccc4)C3=O)N1C[C@@H]1N[C@@H]12 [III, 7-N-phenyl mitomycin C, reference compound]
[1]; [11]
  Average number of leucocytes: 81.4 ± 21.2 × 10^2 /mm^3
[1]; [12]
  Average number of leucocytes: 60.8 ± 18.7 × 10^2 /mm^3
[1]; [13]
  Average number of leucocytes: 31.8 ± 11.9 × 10^2 /mm^3
[1]; 40 mg/kg i.p., death symbol in place of count
  Average number of leucocytes: D*
[2]; [15]
  Average survival days: 17.84 ± 1.2 days
  ILS % (increase in life span): 82%
  Number of survivors: 0/5
[2]; [16]
  Average survival days: 17.8 ± 1.2 days
  ILS % (increase in life span): 82%
  Number of survivors: 0/5
[2]; [17]
  Average survival days: 21.8 ± 4.3 days
  ILS % (increase in life span): 122%
  Number of survivors: 1/5
[2]; [18]
  Average survival days: 22.04 ± 4.6 days
  ILS % (increase in life span): 124%
  Number of survivors: 0/5
[2]; [27]
  Average survival days: 21.2 ± 2.8 days
  ILS % (increase in life span): 116%
  Number of survivors: 0/5
[2]; [28]
  Average survival days: 21.2 ± 2.8 days
  ILS % (increase in life span): 116%
  Number of survivors: 0/5
[2]; [19]
  Average survival days: 21.6 ± 4.4 days
  ILS % (increase in life span): 120%
  Number of survivors: 1/5
[2]; [20]
  Average survival days: 21.8 ± 4.8 days
  ILS % (increase in life span): 122%
  Number of survivors: 0/5
[3]; [23]
  T/C (tumor weight ratio): 0.84
[3]; [24]
  T/C (tumor weight ratio): 0.59
[3]; [25]
  T/C (tumor weight ratio): 0.21
[3]; 40 mg/kg i.p., death symbol in place of T/C
  T/C (tumor weight ratio): D*
[5]; 5 mg/kg i.v. once
  Average survival days: 11.4 ± 1.4 days
  ILS %: 33%
[5]; 10 mg/kg i.v. once
  Average survival days: 13.6 ± 1.4 days
  ILS %: 54%
[5]; 15 mg/kg i.v. once
  Average survival days: 15.8 ± 1.5 days
  ILS %: 84%
[5]; 20 mg/kg i.v. once
  Average survival days: 18.0 ± 1.7 days
  ILS %: 109%
[5]; 30 mg/kg i.v. once
  Average survival days: 10.0 ± 2.3 days
  ILS %: 16%
[6]
  minimum inhibitory concentration: 0.098
[7]
  minimum inhibitory concentration: < 0.025
[8]
  minimum inhibitory concentration: 1.563
[9]
  minimum inhibitory concentration: < 0.025
[10]
  solubility in water: low solubility in water
